Assay results from ChEMBL document CHEMBL1136731, “Synthesis and biological evaluation of non-peptidic cyclophilin ligands” (J Med Chem, 2003).

The compounds below were run against Peptidyl-prolyl cis-trans isomerase A (Rattus norvegicus) (UniProt P10111) (assay: In vitro inhibition of the rotamase activity of cyclophilin A (CyPA) […]).
Chain of Peptidyl-prolyl cis-trans isomerase A (Rattus norvegicus) (P10111 whole entry): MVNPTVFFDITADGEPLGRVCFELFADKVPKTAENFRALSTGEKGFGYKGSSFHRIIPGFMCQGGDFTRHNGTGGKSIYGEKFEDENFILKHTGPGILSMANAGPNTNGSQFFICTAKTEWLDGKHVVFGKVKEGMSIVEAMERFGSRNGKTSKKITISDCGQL

inhibition [%]	Structure (SMILES)
100	O=C(Nc1ccc(I)cc1)Nc1cc(NC(=O)Nc2ccc(I)cc2)c(Br)cc1Br
22	N#Cc1cccc(NC(=O)NC2CCCC(NC(=O)Nc3cccc(C#N)c3)C2)c1 (stereo not drawn)
38	N#Cc1cccc(NC(=O)Nc2cccc(NC(=O)Nc3cccc(C#N)c3)c2)c1
100	O=C(NCC(c1ccccc1)c1ccccc1)Nc1cccc(NC(=O)NCC(c2ccccc2)c2ccccc2)c1
24	O=C(NC1CCCCC1)NC1CCCC(NC(=O)NC2CCCCC2)C1 (stereo not drawn)
11	O=C(NCc1ccccc1)NC1CCCC(NC(=O)NCc2ccccc2)C1 (stereo not drawn)
100	O=C(Nc1cccc(NC(=O)Nc2ccc(Br)cc2Br)c1)Nc1ccc(Br)cc1Br
7	CC(C)(C)NC(=O)NC1CCCC(NC(=O)NC(C)(C)C)C1 (stereo not drawn)
40	Cc1ccc(NC(=O)NC2CCCC(NC(=O)Nc3ccc(C)cc3C)C2)c(C)c1 (stereo not drawn)
98	CN(C)c1ccc(NC(=O)Nc2cc(NC(=O)Nc3ccc(N(C)C)cc3)c(Br)cc2Br)cc1
100	O=C(Nc1ccc(Br)cc1Br)NC1CCCC(NC(=O)Nc2ccc(Br)cc2Br)C1 (stereo not drawn)
100	O=C(Nc1cc(Cl)cc(Cl)c1)Nc1cccc(NC(=O)Nc2cc(Cl)cc(Cl)c2)c1
32	O=C(Nc1ccc(Cl)cc1)NC1CCCC(NC(=O)Nc2ccc(Cl)cc2)C1 (stereo not drawn)
100	O=C(Nc1cc(Cl)cc(Cl)c1)NC1CCCC(NC(=O)Nc2cc(Cl)cc(Cl)c2)C1 (stereo not drawn)
93	O=C(Nc1cccc(NC(=O)Nc2ccon2)c1)Nc1ccon1
100	O=C(Nc1cccc2ccccc12)NC1CCCC(NC(=O)Nc2cccc3ccccc23)C1 (stereo not drawn)
0	O=C(Nc1cccc(NC(=O)Nc2ccccn2)c1)Nc1ccccn1
100	COc1cccc(NC(=O)NC2CCCC(NC(=O)Nc3cccc(OC)c3)C2)c1 (stereo not drawn)
100	O=C(NCc1cccc2ccccc12)Nc1cccc(NC(=O)NCc2cccc3ccccc23)c1
100	Cc1ccc(NC(=O)Nc2cccc(NC(=O)Nc3ccc(C)cc3C)c2)c(C)c1
23	CCCCNC(=O)Nc1cccc(NC(=O)NCCCC)c1
8	COc1cccc(NC(=O)Nc2cccc(NC(=O)Nc3cccc(OC)c3)c2)c1
6	O=C(Nc1cccc(NC(=O)c2cccnc2)c1)c1cccnc1
44	O=C(Cc1ccccc1)Nc1cccc(NC(=O)c2cc(Cl)cc(Cl)c2)c1
28	O=C(NC1CCCC(NC(=O)NC23CC4CC(CC(C4)C2)C3)C1)NC12CC3CC(CC(C3)C1)C2 (stereo not drawn)
19	O=C(NCc1ccccc1)Nc1cccc(NC(=O)NCc2ccccc2)c1

The compounds below were run against Peptidyl-prolyl cis-trans isomerase A (Rattus norvegicus, UniProt P10111) (assay: In vitro inhibition of the rotamase activity of cyclophilin A (CyPA)).
Chain of Peptidyl-prolyl cis-trans isomerase A (P10111 whole entry): as above

IC50 [µM]	Structure (SMILES)
2.12	Cc1ccccc1CNC(=O)Nc1cccc(NC(=O)c2cc(Cl)cc(Cl)c2)c1
0.59	O=C(Nc1ccc(I)cc1)Nc1cc(NC(=O)Nc2ccc(I)cc2)c(Br)cc1Br
1.18	O=C(Nc1ccccc1)Nc1cccc(NC(=O)c2cc(Cl)cc(Cl)c2)c1
3.35	O=C(NCc1ccccc1)Nc1cccc(NC(=O)c2cc(Cl)cc(Cl)c2)c1
0.62	O=C(Nc1cccc(NC(=O)c2cc(Cl)cc(Cl)c2)c1)Nc1ccc(Br)cc1Br
0.87	O=C(CC(c1ccccc1)c1ccccc1)Nc1cccc(NC(=O)c2cc(Cl)cc(Cl)c2)c1
0.93	O=C(Nc1cccc(NC(=O)c2cc(Cl)cc(Cl)c2)c1)c1cc(Cl)cc(Cl)c1
2.9	CN(C)c1ccc(NC(=O)Nc2cc(NC(=O)Nc3ccc(N(C)C)cc3)c(Br)cc2Br)cc1
0.69	O=C(Nc1cc(Cl)cc(Cl)c1)Nc1cccc(NC(=O)c2cc(Cl)cc(Cl)c2)c1
0.48	S=C(Nc1cc(Cl)cc(Cl)c1)Nc1cccc(NC(=S)Nc2cc(Cl)cc(Cl)c2)c1
1.12	O=C(Cc1cccc2ccccc12)Nc1cccc(NC(=O)c2cc(Cl)cc(Cl)c2)c1
0.88	O=C(Cc1ccc2ccccc2c1)Nc1cccc(NC(=O)c2cc(Cl)cc(Cl)c2)c1
4	O=C(Nc1cccc(NC(=O)Nc2ccon2)c1)Nc1ccon1
4.55	O=C(Nc1cccc2ccccc12)NC1CCCC(NC(=O)Nc2cccc3ccccc23)C1 (stereo not drawn)
9.5	COc1cccc(NC(=O)NC2CCCC(NC(=O)Nc3cccc(OC)c3)C2)c1 (stereo not drawn)
1.41	CCc1ccccc1NC(=O)Nc1cccc(NC(=O)c2cc(Cl)cc(Cl)c2)c1
0.94	O=C(Nc1ccc(C(F)(F)F)cc1)Nc1cccc(NC(=O)c2cc(Cl)cc(Cl)c2)c1
